# Experimental data reported in paper PMC11202288, “The Structural Basis of the Activity Cliff in Modafinil-Based Dopamine Transporter Inhibitors” (Biomolecules, 2024).
# Read-outs that look alike come from different tables or passages of the source.
# Target: T1, hDAT (human dopamine transporter) (Homo sapiens, UniProt Q01959)
# T1 construct: gene SLC6A3; full-length human DAT stably expressed in HEK293 cells; membrane preparation
# Experiment: [3H]WIN35, […] competition binding, HEK293-hDAT membranes
# [1] = read-out: hDAT Ki ± SEM (nM) ^a (n)
# T1 sequence (Q01959 whole entry): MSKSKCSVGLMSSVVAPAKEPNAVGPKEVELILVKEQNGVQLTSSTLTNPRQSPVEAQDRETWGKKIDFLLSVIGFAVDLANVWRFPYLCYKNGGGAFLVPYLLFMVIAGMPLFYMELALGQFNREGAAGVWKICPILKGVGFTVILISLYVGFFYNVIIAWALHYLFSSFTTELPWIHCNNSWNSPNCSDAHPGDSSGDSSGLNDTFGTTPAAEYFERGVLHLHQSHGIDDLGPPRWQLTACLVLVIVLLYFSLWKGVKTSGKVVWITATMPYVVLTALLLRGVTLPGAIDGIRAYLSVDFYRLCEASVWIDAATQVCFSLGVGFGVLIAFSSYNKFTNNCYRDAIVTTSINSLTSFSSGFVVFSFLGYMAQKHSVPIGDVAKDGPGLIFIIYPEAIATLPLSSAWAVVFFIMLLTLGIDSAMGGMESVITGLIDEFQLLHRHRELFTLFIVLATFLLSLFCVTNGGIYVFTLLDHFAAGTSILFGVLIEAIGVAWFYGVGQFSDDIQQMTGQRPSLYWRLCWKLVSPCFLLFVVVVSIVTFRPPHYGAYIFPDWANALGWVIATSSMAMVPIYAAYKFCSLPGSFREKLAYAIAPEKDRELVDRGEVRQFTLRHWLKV
SMILES,Ki [1] [nM],Ki [nM]
CC(O)CN1[C@H](C)CN(CC[S+]([O-])C(c2ccc(F)cc2)c2ccc(F)cc2)C[C@@H]1C (stereo partly drawn) [RDS4-010],1570 ± 186,
CC(O)CN1[C@H](C)CN(CCSC(c2ccc(F)cc2)c2ccc(F)cc2)C[C@@H]1C (stereo partly drawn) [RDS3-094],,50.1 ± 6.51
CC(O)CN1CCN(CCSC(c2ccc(F)cc2)c2ccc(F)cc2)CC1 (stereo not drawn) [JJC8-089],69.1 ± 10.5,
